Laboratory results taken from BindingDB's records for doi:10.7270/Q2Z31X54 (Burnham Center For Chemical Genomics, 2011).

Target: T1, Endoribonuclease toxin MazF (Escherichia coli (strain K12), UniProt P0AE70)
T1 sequence (P0AE70 whole entry): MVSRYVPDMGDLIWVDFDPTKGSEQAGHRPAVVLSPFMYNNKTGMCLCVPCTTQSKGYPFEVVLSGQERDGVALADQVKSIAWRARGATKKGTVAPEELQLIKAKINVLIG
Test: activation of MazEF endoribonuclease cleavage – biochemical, fluorescence, single-stranded RNA substrate, uHTS hits, dose response (AID 588481)

Row | Structure (SMILES) | EC50 [µM] | EC50 (inactive by the depositor's call) [µM]
1 | CCOc1ccc(N=CCC(=O)c2ccc(OC)cc2)c([N+](=O)[O-])c1 | > 99 | –
2 | O=C1N=c2ccccc2=C1NNc1ccc(F)cc1 | > 99 | –
3 | Cc1ccc(Cl)c2c1=NC(=O)C=2NNc1ccccc1 | 19.1 | –
4 | N#CC(C(=O)c1ccc([N+](=O)[O-])o1)c1nc2ccccc2[nH]1 (stereo not drawn) | > 99 | –
5 | Cc1oc(C)c2c(=O)ccc3c(c12)OC(=N)C(C#N)C3c1ccccc1 (stereo not drawn) | > 99 | –
6 | CC1CC(=O)C2=C(C1)OC(=N)C(C#N)C2c1coc2ccccc2c1=O (stereo not drawn) | > 99 | –
7 | O=C1N=c2ccccc2=C1NNc1ccccc1F | > 99 | –
8 | O=C1Nc2ccc([N+](=O)[O-])cc2C1=NNc1ccc(F)cc1 | > 99 | –
9 | Cc1ccc2nc(N3C(=O)C(=O)C(C(=O)c4ccco4)C3c3cccs3)sc2c1 (stereo not drawn) | > 99 | –
10 | Cc1cc(O)n(-c2ccc(NCc3ccc(Cl)cc3)c([N+](=O)[O-])c2)c1O [1-{4-[(4-chlorobenzyl)amino]-3-nitrophenyl}-3-methylpyrrolidine-2,5-dione] | 96.1 | –
11 | COc1ccc(Nc2oc3cc(=O)ccc-3cc2C(=O)NCC2CCCO2)c(OC)c1 (stereo not drawn) [2-(2,4-dimethoxyanilino)-7-oxo-N-(2-oxolanylmethyl)-1-benzopyran-3-carboxamide] | > 99 | –
12 | CCCCOc1cccc(C2C(C(=O)c3ccc(C)o3)C(=O)C(=O)N2c2nnc(C)s2)c1 (stereo not drawn) [2-(3-butoxyphenyl)-3-(5-methylfuran-2-yl)carbonyl-1-(5-methyl-1,3,4-thiadiazol-2-yl)-4-oxidanyl-2H-pyrrol-5-one] | > 99 | –
13 | CCOc1cccc(C2C(C(=O)c3ccc(C)o3)C(=O)C(=O)N2c2nccs2)c1 (stereo not drawn) [2-(3-ethoxyphenyl)-3-(5-methylfuran-2-yl)carbonyl-4-oxidanyl-1-(1,3-thiazol-2-yl)-2H-pyrrol-5-one] | 16.9 | –
14 | Cc1[nH]c2ccccc2c1/C=C1\N=C(c2ccc(F)cc2)OC1=O [2-(4-fluorophenyl)-4-[(2-methyl-1H-indol-3-yl)methylene]-1,3-oxazol-5(4H)-one] | > 99 | –
15 | Cc1nnc(N2C(=O)C(=O)C(C(=O)c3ccco3)C2c2ccc(C(C)(C)C)cc2)s1 (stereo not drawn) [2-(4-tert-butylphenyl)-3-(furan-2-carbonyl)-4-hydroxy-1-(5-methyl-1,3,4-thiadiazol-2-yl)-2H-pyrrol-5-one] | > 99 | –
16 | O=[N+]([O-])c1ccc(N=NCc2ccccc2)c(F)c1 [2-fluoranyl-4-nitro-N-[(phenylmethylidene)amino]aniline] | > 99 | –
17 | O=C1C(=O)N(c2nccs2)C(c2ccccc2)C1C(=O)c1cc2ccccc2o1 (stereo not drawn) [3-(1-benzofuran-2-carbonyl)-4-hydroxy-2-phenyl-1-(1,3-thiazol-2-yl)-2H-pyrrol-5-one] | > 99 | –
18 | C=CCOc1cccc(C2C(C(=O)c3ccc(C)o3)C(=O)C(=O)N2c2nccs2)c1 (stereo not drawn) [3-(5-methylfuran-2-yl)carbonyl-4-oxidanyl-2-(3-prop-2-enoxyphenyl)-1-(1,3-thiazol-2-yl)-2H-pyrrol-5-one] | 11.4 | –
19 | CSc1ccc(C2C(C(=O)c3ccco3)C(=O)C(=O)N2c2nnc(SC)s2)cc1 (stereo not drawn) [3-(furan-2-carbonyl)-4-hydroxy-2-(4-methylsulfanylphenyl)-1-(5-methylsulfanyl-1,3,4-thiadiazol-2-yl)-2H-pyrrol-5-one] | > 99 | –
20 | O=C1Nc2ccccc2C1=NNc1ccccc1 [3-(phenylhydrazo)-2-indolone] | > 99 | –

Row | Structure (SMILES) | EC50 [µM] | EC50 (inactive by the depositor's call) [µM]
21 | COc1cccc(C2=Nc3nnnn3C(c3ccc(N(C)C)cc3)C2)c1 (stereo not drawn) [4-[5-(3-methoxyphenyl)-1,7-dihydro-[1,2,3,4]tetrazolo[1,5-a]pyrimidin-7-yl]-N,N-dimethyl-aniline] | > 99 | –
22 | N#Cc1ccc(-n2c(O)c3[nH][nH]c(C(=O)c4ccc5ccccc5n4)c-3c2=O)cc1 [4-[(3aS,6aS)-4,6-dioxo-3-[oxo(2-quinolinyl)methyl]-3a,6a-dihydro-1H-pyrrolo[3,4-c]pyrazol-5-yl]benzonitrile] | 15.1 | –
23 | Cc1ccc(N/N=C2/C(=O)Nc3ccc(F)cc32)cc1 [5-fluoro-3-[2-(4-methylphenyl)hydrazono]indolin-2-one] | > 99 | –
24 | O=c1cc2oc(O)c3cc(O)c(O)c(O)c3c-2oc1=O [6,8,9,10-tetrahydroxypyran[3,2-c]isochromene-2,3-quinone] | 80.5 | –
25 | COCc1n[nH]c2c1C(c1cc(OC)c(O)c(OC)c1)C(C#N)C(=N)O2 (stereo not drawn) [6-azanyl-4-(3,5-dimethoxy-4-oxidanyl-phenyl)-3-(methoxymethyl)-2,4-dihydropyrano[2,3-c]pyrazole-5-carbonitrile] | > 99 | –
26 | Cn1c(C(C#N)C(=O)COc2ccc3ccccc3c2)nc2ccccc21 (stereo not drawn) [(2E)-2-(3-methyl-1H-benzimidazol-2-ylidene)-4-(2-naphthalenyloxy)-3-oxobutanenitrile] | > 99 | –
27 | COc1cc2c(cc1OC)C(CC(=O)c1ccc([N+](=O)[O-])c(C)c1)=NCC2 [(2Z)-2-(6,7-dimethoxy-3,4-dihydro-2H-isoquinolin-1-ylidene)-1-(3-methyl-4-nitrophenyl)ethanone] | > 99 | –
28 | O=C1N=c2ccccc2=C1NNc1cccc(Cl)c1 [(3E)-1H-indole-2,3-dione 3-[(3-chlorophenyl)hydrazone]] | > 99 | –
29 | CCCCN1C(=O)C(=NNc2ccccc2O)c2ccccc21 [(3Z)-1-butyl-3-[(2-hydroxyphenyl)hydrazinylidene]indol-2-one] | 44.9 | –
30 | CCCN1C(=O)C(=NNc2ccc3ccccc3n2)c2ccccc21 [(3Z)-1-propyl-3-(2-quinolinylhydrazinylidene)-2-indolone] | > 99 | –
31 | Cc1ccc(NN=C2C(=O)N(CN3CCOCC3)c3ccccc32)cc1 [(3Z)-3-[(4-methylphenyl)hydrazinylidene]-1-(4-morpholinylmethyl)-2-indolone] | 39.4 | –
32 | O=C(c1ccc2ccccc2n1)c1[nH][nH]c2c(O)n(-c3cccc(F)c3)c(=O)c1-2 [(3aS,6aS)-5-(3-fluorophenyl)-3-[oxo(2-quinolinyl)methyl]-3a,6a-dihydro-1H-pyrrolo[3,4-c]pyrazole-4,6-dione] | 20.5 | –
33 | N=C(N)C1=CC(=O)/C(=C/C=c2ccc(=C(N)N)cc2)C=C1 [(4E)-4-[2-[4-[bis(azanyl)methylidene]cyclohexa-2,5-dien-1-ylidene]ethylidene]-3-oxidanylidene-cyclohexa-1,5-diene-1-carboximidamide;2-oxidanylethanesulfonic acid] | 4.77 | –
34 | O=C1NC(=O)N(C2CCCCC2)C(=O)C1=CCC=Nc1ccccc1 [(5Z)-5-[(E)-3-anilinoprop-2-enylidene]-1-cyclohexyl-1,3-diazinane-2,4,6-trione] | > 99 | –
35 | Clc1cccc(C(Cc2nc3ccccc3[nH]2)N=Nc2ccccc2)c1 (stereo not drawn) [MLS000374846] | > 99 | –
36 | COc1ccc(CN=Nc2ccc([N+](=O)[O-])cc2S(=O)(=O)N2CCN(C)CC2)cc1 [MLS000553953] | > 99 | –
37 | Cc1cccc(NNC2=c3cc(F)ccc3=NC2=O)c1 [MLS000673317] | 38.7 | –
38 | O=c1[nH]c(N=NCc2ccc(F)cc2)nc2ccccc12 [MLS000700887] | 7.12 | –
39 | CCC(N=Nc1cccc(C)c1)c1cnnc(SC)n1 (stereo not drawn) [MLS000705906] | > 99 | –
40 | C=c1[nH]n(-c2ccccc2)c(=O)c1=Cc1cc(C)n(C2CC2)c1C [MLS001018445] | > 99 | –

Row | Structure (SMILES) | EC50 [µM] | EC50 (inactive by the depositor's call) [µM]
41 | CCSc1nnc(N2C(=O)C(=O)C(C(=O)c3ccco3)C2c2cccc(OC)c2)s1 (stereo not drawn) [MLS001140620] | > 99 | –
42 | O=[N+]([O-])c1cc/c(=N\c2ccccc2O)c2no[nH]c1-2 [MLS001206694] | > 99 | –
43 | Oc1ccc2ccccc2c1C=Nn1c(O)csc1=S [MLS002707175] | > 99 | –
44 | O=[N+]([O-])c1ccc(N=NCc2ccc3c(c2)OCO3)nc1 [N-(1,3-benzodioxol-5-ylmethylideneamino)-5-nitro-pyridin-2-amine] | 40.5 | –
45 | O=[N+]([O-])c1ccc(N=NCc2cccc3ccccc23)nc1 [N-(naphthalen-1-ylmethylideneamino)-5-nitro-pyridin-2-amine] | > 99 | –
46 | CCN(CC)c1ccc(CN=Nc2ccc([N+](=O)[O-])cn2)cc1 [N-[[4-(diethylamino)phenyl]methylideneamino]-5-nitro-pyridin-2-amine] | > 99 | –
47 | Cc1ccc(C2=Nc3nnnn3C(c3ccc(N(C)C)cc3)C2)cc1 (stereo not drawn) [SMR000092467] | > 99 | –
48 | COc1ccc(C=C2CCCC(C(=O)C(F)(F)F)C2=O)cc1 (stereo not drawn) [SMR000142699] | > 99 | –
49 | Cc1[nH]c2ccccc2c1/C=C1\N=C(c2ccc(C(F)(F)F)cc2)OC1=O [SMR000152363] | > 99 | –
50 | O=C(c1ccc2ccccc2n1)c1[nH][nH]c2c(O)n(-c3cccc(C(F)(F)F)c3)c(=O)c1-2 [SMR000212847] | 47.9 | –
51 | Cc1ccc(S(=O)(=O)N[N-][C+]2CCC(C(C)(C)C)CC2)cc1[N+](=O)[O-] [SMR000241764] | – | 52
52 | COc1ccc(N=CCC(=O)c2ccc(C)cc2)cc1OC [SMR000269732] | > 99 | –
53 | COc1cc(C2c3c(-c4cccs4)n[nH]c3OC(=N)C2C#N)cc(OC)c1O (stereo not drawn) [SMR000275523] | > 99 | –
54 | CC1(C)CC(=O)C(N=Nc2cc3c(cc2[N+](=O)[O-])OCCO3)C(=O)C1 [SMR000348183] | > 99 | –
55 | O=C1N=c2ccc(Br)cc2=C1NNc1ccc(F)cc1 [SMR000564049] | > 99 | –
56 | CSc1nnc(N2C(=O)C(=O)C(C(=O)c3ccc(C)o3)C2c2ccc(C)cc2)s1 (stereo not drawn) [SMR000650392] | 9.87 | –
57 | CCN1C(=O)C(C=NN=Cc2ccccc2)c2ccc(C3=NNC(=O)CC3)cc21 (stereo not drawn) [benzaldehyde {[1-ethyl-2-oxo-6-(6-oxo-1,4,5,6-tetrahydro-3-pyridazinyl)-1,2-dihydro-3H-indol-3-ylidene]methyl}hydrazone] | > 99 | –
58 | CCOC(=O)c1c(NC=C2C(=O)NC(=O)NC2=O)sc2c1CCC2 [ethyl 2-{[(1E)-(2,4,6-trioxohexahydropyrimidin-5-yl)methylene]amino}-5,6-dihydro-4H-cyclopenta[b]thiophene-3-carboxylate] | > 99 | –
